Values quoted from earlier work, collected in US9452147B2, “Lipolytic methods” (Neothetics, Inc., priority 2005, dated 2016).

What was measured:
[1] = test system: thigh circumference in women; settings: subcutaneous injections three to five times per week in multiple locations over the thighs
[2] = relative to albuterol 5, a short acting hydrophilic beta agonist

| Compound | thigh circumference in women [1] | times more lipophilic than albuterol 5 [2] |
| --- | --- | --- |
| CC(C)NCC(O)c1ccc(O)c(O)c1 (stereo not drawn) [isoproterenol] | reduce the thigh circumference | – |
| COC(=O)[C@@H]1[C@H]2C[C@H]3c4[nH]c5ccccc5c4CCN3C[C@@H]2CC[C@@H]1O [yohimbine] | reduce the thigh circumference | – |
| OCc1cc(C(O)CNCCCCCCOCCCCc2ccccc2)ccc1O (racemic) [salmeterol 1, ±2-(hydroxymethyl)-4-[1-hydroxy-2-[6-(4-phenylbutoxyl)hexylamino]ethyl]-phenol] | – | at least 10,000 times |
